Reference: patent publication US6949354B2, “Methods for screening compounds active on neurons” (Trophos, priority 1999, dated 2005)

Experiments:
motor neurons = experiment: Induction of motor neuron cell death by glutamate toxicity (domoic acid); format: cell-based, rat; details: domoic acid at 10^-5 M, after 24 hours
Experimental: Domoic acid at 10^−5M leads to loss of more than 50% of motor neurons after 24 hours (see is example), with even more dramatic effects after longer incubations.
Rat motor neurons were isolated and purified as described in example 1 and cultured for 3 days in Neurobasal medium without neurotrophic factors (i.e. trophic factor withdrawal) in 4-well plates in the presence or absence of the test molecule. The neurotrophic factor BDNF is used as a positive control for all experiments. […] Motor neurons were grown for 3 days in vitro, then domoic acid at various concentrations was added and the number of surviving motor neurons was counted after 26 hours.

Rat motor neurons = experiment: Motor neuron survival on trophic factor withdrawal; format: cell-based; details: cultured 3 days in Neurobasal medium without neurotrophic factors, 4-well plates; FIG. 1
Experimental: Spinal cords are dissected from day E14.5 sprague Dawley rat embryos (Camu et al., (1993) In: “Immunoselection Strategies for Neural Cell Culture”, Neuroprotocols: A companion to Methods in Neurosciences 2, 191-199). The dorsal part of the spinal cord is cut away, and the meninges removed. Each cord is cut into pieces using a scalpel and placed into 1 ml modified F10 medium (Ca2+, Mg2+-free, no glutamine or phenol red), with 0.025% trypsin, at 37° C. for 10 minutes. The fragments are transferred to 1 ml L15 containing 0.4% BSA and 0.1 mg/ml Dnase, and triturated using a blue (1 ml) tip. Cells are then spun through a BSA (4% w/v) cushion for 5 minutes at 480 g. The small cells are removed using a metrizamide (Serva) density gradient: 6.5% (w/v) metrizamide is placed under the cell suspension and centrifuged for 15 minutes at 860 g. The large motor neurons stay at the interface between the medium and the metrizamide, while the small cells (including non-neuronal cells) are pelleted. […]
Rat motor neurons were isolated and purified as described in example 1 and cultured for 3 days in Neurobasal medium without neurotrophic factors (i.e. trophic factor withdrawal) in 4-well plates in the presence or absence of the test molecule. […] Motor neurons were grown for 3 days in vitro, then domoic acid at various concentrations was added and the number of surviving motor neurons was counted after 26 hours. […]

isolated neurons = experiment: Low-density isolated neuron cultures (384-well plate) under growth factor privation, individual cell count; format: cell-based; details: growth factor privation to induce apoptosis, exclusion threshold below 300 μm^2, untreated well 18 neurons, FIG. 3A
Description: FIG. 3 represents two 9 mm^2-wells of a microtitration plate (384 wells) containing low-density cultures of isolated neurons according to this invention. The cultures were subjected to growth factor privation to induce apoptosis, and treated or not with BDNF. […] The exclusion threshold is below 300 μm^2.

`C/C(=C/C=C/[C@@H](C)C(=O)O)[C@H]1CN[C@H](C(=O)O)[C@H]1CC(=O)O` [Domoic acid] was tested, and the “loss of motor neurons” value (motor neurons) was “more than 50%”.

In the case of `CCCC(CCC)C(=O)[O-].[Na+]` [sodium valproate], the “survival of motor neurons on trophic factor withdrawal” value (Rat motor neurons) is reported as “enhances survival of motor neurons”.

In the case of (4-carboxyphenyloxyamino) butanoic acid, the “survival of motor neurons on trophic factor withdrawal” value (Rat motor neurons) is reported as “no effect on motor neuron survival”.

B1: BDNF: neurotrophic factor used as a positive control (protein, UniProt P23560 19-247, looked up)
Neurotrophic factor BDNF …: APMKEANIRGQGGLAYPGVRTHGTLESVNGPKAGSRGLTSLADTFEHVIEELLDEDQKVRPNEENNKDADLYTSRVMLSSQVPLEPPLLFLLEEYKNYLDAANMSMRVRRHSDPARRGELSVCDSISEWVTAADKKTAVDMSGGTVTVLEKVPVSKGQLKQYFYETKCNPMGYTKEGCRGIDKRHWNSQCRTTQSYVRALTMDSKKRIGWRFIRIDTSCVCTLTIKRGR
B1 was tested, and the “neurons present per 9 mm^2 well” value (isolated neurons) was 73 neurons.
